Source: US12398093B2, “Compounds and methods for treating inflammatory disorders” (Board of Supervisors of Louisiana State University and …, priority 2019, dated 2025)
Values joined by “and” are separate entries in the source; they are usually repeats but may differ in a detail not shown here. Equal entries are not always repeated. Where two headings read alike, the source gives them in different places. Marks after values point to notes of the source that are not given here.

Tests used:
human 5-HT2A receptor = target: T1, human 5-HT2A receptor (Homo sapiens, UniProt P28223); test: Gq-mediated calcium transients (calcium mobilization), Fluo-4, HEK cells; assay type: cell-based
T1 construct: expressed in transfected cells

5-HT2AR-Tango construct = target: T2, 5-HT2AR-Tango construct (Homo sapiens, UniProt P28223); test: β-arrestin-2 recruitment, PRESTO-Tango assay in HTLA cells; assay type: cell-based; details: for Emax: HTLA
T2 construct: expressed in transfected cells; host or cells: HTLA cells (transient transfection)

C57BL/6J mice = test: Head twitch response (HTR), magnetometer detection; assay type: in vivo; details: for HTR counts, mean: 30-minute session; for ED50: Mus musculus
Method: The head twitch response (HTR) can be used as a behavioral proxy in rodents for human hallucinogenic effects, because it can reliably distinguish hallucinogenic and non-hallucinogenic 5-HT2A receptor agonists. […] HTR studies were conducted with (R)-DOI and 2C-iBu in C57BL/6J mice.
Male C57BL/6J mice (6-8 weeks old) obtained from Jackson Laboratories (Bar Harbor, ME, USA) were housed at up to four per cage in a climate-controlled room on a reverse-light cycle (lights on at 1900 h, off at 0700 h) and were provided with ad libitum access to food and water, except during behavioral testing. Testing was conducted between 1000 and 1800 h.
Drug doses are based on the equivalent freebase weight. Test substances were dissolved in sterile isotonic saline and injected subcutaneously (SC) at a volume of 5 mL/kg.
The HTR was assessed using a head-mounted magnet and a magnetometer detection coil, according to known methods. Briefly, mice were anesthetized, a small incision was made in the scalp, and a small neodymium magnet was attached to the dorsal surface of the cranium using dental cement. Following a two-week recovery period, HTR experiments were carried out in a well-lit room with at least seven days between sessions to avoid carryover effects. Test compounds were injected immediately prior to testing. Mice were injected with drug or vehicle and then HTR activity was recorded in a glass cylinder surrounded by a magnetometer coil. Coil voltage was low-pass filtered (2-10 kHz cutoff frequency), amplified, and digitized (20 kHz sampling rate) using a Powerlab/8SP with LabChart v 7.3.2 (ADInstruments, Colorado Springs, CO, USA), then filtered off-line (40-200 Hz band-pass).
Experiment 1. Five groups of mice (n=6/group, 30 total) were treated with vehicle or R-DOI (0.1, 0.3, 1, or 3 mg/kg) and HTR activity was assessed for 30 minutes. Experiment 2. Five groups of mice (n=6-7/group, 34 total) were treated with vehicle or 2C-iBu (0.3, 1, 3, or 10 mg/kg) and HTR activity was assessed for 30 minutes. Experiment 3. Two groups of mice (n=7/group, 14 total) were treated with R-DOI (1 mg/kg) or 2C-iBu (3 mg/kg) and HTR activity was assessed for 210 minutes.
For Experiment 1 and Experiment 2, the entire thirty-minute recordings were examined for head twitches, head twitch counts were analyzed using one-way analyses of variance (ANOVA). In addition, HTR counts were analyzed in two-minute time blocks using one-way ANOVAs, with time as a repeated measure. Post hoc pairwise comparisons between selected groups were performed using Tukey's studentized range method.
A Gaussian distribution was used to fit biphasic HTR dose-response data:
[formula] [formula] In these equations, E is the drug effect, Baseline is the response in the control group, Range is the distance from Baseline to the top of the curve, [A] is the dose of the drug, and midA is the logarithm of the dose corresponding to the top of the curve. To determine whether potency differences exist between individual compounds, ED50 values were compared using an extra-sum-of-squares F-test.
For Experiment 3, HTR counts were examined in 5-min time blocks. To determine the half-life of drug responses, the descending phase of the data was fitted with a one-phase exponential decay function. The responses produced by R-(−)-DOI (1 mg/kg) or ELEU02 were analyzed using one-way ANOVA, with time as a repeated measure. Post hoc pairwise comparisons between groups were performed using Sidak's multiple comparisons test.

5-HT1A (h) = target: T3, 5-HT1A (h) (Homo sapiens, UniProt P08908); test: Radioligand binding, agonist radioligand [3H]8-OH-DPAT
T3 construct: membrane preparations
T3 sequence (P08908 1-422): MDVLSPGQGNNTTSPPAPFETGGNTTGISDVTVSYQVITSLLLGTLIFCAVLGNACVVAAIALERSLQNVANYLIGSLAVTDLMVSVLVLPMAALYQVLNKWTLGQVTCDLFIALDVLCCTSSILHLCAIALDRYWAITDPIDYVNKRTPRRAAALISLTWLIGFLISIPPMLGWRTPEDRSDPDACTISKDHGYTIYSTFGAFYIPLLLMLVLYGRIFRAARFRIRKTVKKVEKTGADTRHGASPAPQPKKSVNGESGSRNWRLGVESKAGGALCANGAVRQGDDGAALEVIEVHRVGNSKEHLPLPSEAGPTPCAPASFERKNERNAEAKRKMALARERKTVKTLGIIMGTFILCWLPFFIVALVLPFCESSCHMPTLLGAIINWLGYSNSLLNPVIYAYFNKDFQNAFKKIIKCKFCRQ

5-HT1D = target: T4, 5-HT1D (Rattus norvegicus, UniProt P28565); test: Radioligand binding, agonist radioligand [3H]serotonin; parameters: species or system human
T4 construct: membrane preparations

5-HT6 (h) = target: T5, 5-HT6 (h) (Homo sapiens, UniProt P50406); test: Radioligand binding, agonist radioligand [3H]LSD
T5 construct: membrane preparations

5-HT7 (h) = target: T6, 5-HT7 (h) (Homo sapiens, UniProt P34969); test: Radioligand binding, agonist radioligand [3H]LSD
T6 construct: membrane preparations

5-HT2A (h) = 5-HT2A (h) (Homo sapiens, UniProt P28223); test: Radioligand binding, agonist radioligand [125I](±)DOI
[1] = HEK293, read-out: EMAX (%) calcium mobilization
[2] = read-out: EMAX (%) beta arrestin recruitment
[3] = sc, read-out: ED50 for induction of HTR, based on molar mass
[4] = SC, freebase weight, read-out: ED50 for induction of HTR

T1 sequence (P28223 whole entry): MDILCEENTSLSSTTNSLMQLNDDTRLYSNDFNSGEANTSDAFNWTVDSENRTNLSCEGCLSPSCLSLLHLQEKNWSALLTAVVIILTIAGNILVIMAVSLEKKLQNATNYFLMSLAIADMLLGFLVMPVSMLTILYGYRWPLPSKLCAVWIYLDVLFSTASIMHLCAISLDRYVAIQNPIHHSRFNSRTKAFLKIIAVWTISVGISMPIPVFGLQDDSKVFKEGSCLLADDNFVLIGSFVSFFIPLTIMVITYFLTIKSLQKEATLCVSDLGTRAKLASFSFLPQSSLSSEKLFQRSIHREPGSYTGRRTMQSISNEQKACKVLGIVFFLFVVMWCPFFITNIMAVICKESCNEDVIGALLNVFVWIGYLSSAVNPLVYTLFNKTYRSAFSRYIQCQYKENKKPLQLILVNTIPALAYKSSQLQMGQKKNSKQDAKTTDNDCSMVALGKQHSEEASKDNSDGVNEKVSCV
T2 sequence (P28223 whole entry, added parts left off): as the sequence (P28223 whole entry) above
T2 sequence (P32121 whole entry partner): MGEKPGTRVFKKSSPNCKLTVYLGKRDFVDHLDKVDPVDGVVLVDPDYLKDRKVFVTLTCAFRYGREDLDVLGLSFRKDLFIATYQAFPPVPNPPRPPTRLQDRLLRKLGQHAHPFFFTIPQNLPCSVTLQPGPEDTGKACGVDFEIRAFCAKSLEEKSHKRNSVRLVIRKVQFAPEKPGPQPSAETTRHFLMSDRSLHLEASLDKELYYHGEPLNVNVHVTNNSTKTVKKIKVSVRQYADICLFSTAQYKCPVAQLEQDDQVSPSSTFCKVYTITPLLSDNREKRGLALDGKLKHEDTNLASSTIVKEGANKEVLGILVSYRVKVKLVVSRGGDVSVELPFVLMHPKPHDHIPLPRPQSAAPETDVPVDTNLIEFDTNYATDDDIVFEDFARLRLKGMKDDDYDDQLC
T6 sequence (P34969 whole entry): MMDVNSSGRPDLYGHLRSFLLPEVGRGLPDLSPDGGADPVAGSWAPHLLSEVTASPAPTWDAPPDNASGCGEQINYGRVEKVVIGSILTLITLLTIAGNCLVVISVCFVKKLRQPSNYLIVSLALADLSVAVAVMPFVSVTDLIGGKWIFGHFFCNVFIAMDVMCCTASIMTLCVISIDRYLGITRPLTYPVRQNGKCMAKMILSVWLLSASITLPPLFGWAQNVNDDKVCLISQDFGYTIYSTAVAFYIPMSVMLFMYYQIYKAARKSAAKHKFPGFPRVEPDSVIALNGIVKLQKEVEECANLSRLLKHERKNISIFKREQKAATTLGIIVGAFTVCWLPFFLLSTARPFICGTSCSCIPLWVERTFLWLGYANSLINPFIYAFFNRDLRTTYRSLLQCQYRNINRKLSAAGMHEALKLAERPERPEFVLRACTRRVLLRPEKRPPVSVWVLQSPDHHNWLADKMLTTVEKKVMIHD
T4 sequence (P28565 whole entry): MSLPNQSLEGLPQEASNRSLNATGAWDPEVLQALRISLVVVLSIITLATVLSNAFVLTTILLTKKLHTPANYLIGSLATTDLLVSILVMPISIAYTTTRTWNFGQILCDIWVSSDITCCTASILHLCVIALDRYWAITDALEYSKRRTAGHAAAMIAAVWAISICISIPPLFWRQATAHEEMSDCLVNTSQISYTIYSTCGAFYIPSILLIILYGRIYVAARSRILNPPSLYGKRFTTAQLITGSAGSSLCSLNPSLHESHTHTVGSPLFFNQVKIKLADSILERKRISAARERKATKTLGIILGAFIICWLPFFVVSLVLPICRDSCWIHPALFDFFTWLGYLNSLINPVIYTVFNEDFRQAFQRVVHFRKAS
5-HT2A (h), sequence (P28223 whole entry): as the sequence (P28223 whole entry) above
T5 sequence (P50406 whole entry): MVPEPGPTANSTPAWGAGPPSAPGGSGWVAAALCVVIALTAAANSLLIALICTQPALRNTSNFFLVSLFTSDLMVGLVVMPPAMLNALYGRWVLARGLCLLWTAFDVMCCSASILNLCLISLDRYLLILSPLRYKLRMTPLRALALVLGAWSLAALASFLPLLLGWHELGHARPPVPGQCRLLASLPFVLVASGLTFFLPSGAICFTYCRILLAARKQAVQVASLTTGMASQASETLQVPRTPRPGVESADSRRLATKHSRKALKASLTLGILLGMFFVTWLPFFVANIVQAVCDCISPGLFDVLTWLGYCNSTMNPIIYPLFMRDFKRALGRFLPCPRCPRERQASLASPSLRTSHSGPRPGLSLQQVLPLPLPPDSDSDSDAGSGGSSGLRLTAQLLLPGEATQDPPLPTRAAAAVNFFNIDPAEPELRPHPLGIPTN

In the case of `COc1cc(C[C@@H](C)N)c(OC)cc1I` [R-DOI], the Emax (human 5-HT2A receptor; [1]) is reported as 112%, the Emax (5-HT2AR-Tango construct; [2]) is reported as 71.8% and the “HTR counts, mean” value (C57BL/6J mice; 0.1 mg/kg SC) is reported as 46.5 counts/30 min. For the same molecule, the “HTR counts, mean” value (C57BL/6J mice; 0.3 mg/kg SC) was 78.8 ** counts/30 min, the “HTR counts, mean” value (C57BL/6J mice; 1 mg/kg SC) was 128.0±13.2 counts/30 min and 128.0 ** counts/30 min and the “HTR counts, mean” value (C57BL/6J mice; 3 mg/kg SC) was 116.0 ** counts/30 min. The “Peak HTR counts” value (C57BL/6J mice; Experiment 3, 1 mg/kg SC) was 23.3±3.5 counts/5 min, the ED50 (C57BL/6J mice; [3]) was 0.63 µmol/kg and the ED50 (C57BL/6J mice; [4]) was 0.2 mg/kg. For the same molecule, the ED50 (C57BL/6J mice; administered IP, otherwise identical conditions, read-out: ED50 for induction of HTR) was 0.66 µmol/kg.
With `COc1cc(CC(C)C)c(OC)cc1CCN` [2C-iBu, 2,5-dimethoxy-4-isobutylphenethylamine] the EC50 (human 5-HT2A receptor) was 2.19 nM, the Emax (human 5-HT2A receptor; [1]) was 88% and the Emax (human 5-HT2A receptor; HEK293, read-out: EMAX Ca^2+) was 103%. The EC50 (5-HT2AR-Tango construct) was 13.5 nM, the Emax (5-HT2AR-Tango construct; Table 3, read-out: EMAX β-arrestin-2) was 77% and the Emax (5-HT2AR-Tango construct; [2]) was 57.4%. The “HTR counts, mean” value (C57BL/6J mice; 0.3 mg/kg SC) was 30.8 counts/30 min, the “HTR counts, mean” value (C57BL/6J mice; 1 mg/kg SC) was 74.4 ** counts/30 min and the “HTR counts, mean” value (C57BL/6J mice; 3 mg/kg SC) was 111.1±4.7 counts/30 min and 111.1 ** counts/30 min. The “HTR counts, mean” value (C57BL/6J mice; 10 mg/kg SC) was 43.4* counts/30 min, the “Peak HTR counts” value (C57BL/6J mice; Experiment 3, 3 mg/kg SC) was 20.1±3.5 counts/5 min and the ED50 (C57BL/6J mice; [3]) was 2.17 µmol/kg. For the same molecule, the ED50 (C57BL/6J mice; [4]) was 0.7 mg/kg, the “fold lower behavioral potency than R-DOI” value (C57BL/6J mice; ratio of HTR ED50 values (μmol/kg)) was roughly 3 fold and the Ki (5-HT1A (h)) was 79.4 nM. For the same molecule, the Ki (5-HT1D) was 63.1 nM, the Ki (5-HT6 (h)) was 1260 nM and the Ki (5-HT7 (h)) was 316 nM. It also gave a Ki (5-HT2A (h)) of 1.26 nM.
